Measurements: US20100167397A1, “ENDOCRINE CELL LINES AND METHOD OF USING THE SAME” (KYOWA HAKKO KOGYO CO., LTD., priority 2002, published 2010)
Values belong to the molecule of their own block, whether it stands above or below them. No end group written: not given here.

What was measured:
GPR12 = assay: Host clone selection: inducible expression of GPR12 (pAGal9-GPR12) by 17β-estradiol, CRE-luciferase readout; assay type: cell-based; settings: 24 hours; for rising rate of luciferase activity upon addition of 17β-estradiol: 10 nmol/L, firefly luciferase
Procedure: To the 8 clones was transfected pAGal9-GPR12 [a plasmid for inducible expression of GPR12 which is a constitutively activated G-protein coupled receptor: refer to Example 22 which will be mentioned later] by the above electroporation method using 4 μg to 6×10^6 cells to prepare transformants.
pAGal9-GPR12 was transfected to the 2 clones to prepare stable transformants.

gene expression via CRE = assay: CRE-luciferase reporter stimulation in Namalwa KJM-1 / KJMGER8 cells carrying pACREpluc or pACRERluc; assay type: cell-based, human
Procedure: A reporter plasmid pACREpluc was dissolved in a TE buffer so as to make 1 μg/μl and the plasmid was transfected to Namalwa KJM-1 cells by an electroporation method [Cytotechnology, 3, 133 (1990)] using 4 μg to 6×10^6 cells to give transformants.
The transformants were subcultured in RPMI 1640-ITPSG medium containing hygromycin B (300 μg/ml).
In order to confirm whether gene expression via CRE took place, the transformants were stimulated under the following condition using 5′-N-ethylcarboxamide adenosine (NECA: manufactured by Sigma) which is an agonist of type 2a adenosine receptor (A2a), forskolin (manufactured by Sigma) which is an activator for adenylate cyclase or A23187 (manufactured by Research Biochemicals International) which is a calcium ionophore.
Thus, the above stable transformants were dispensed in an amount of 1×10^5 cells per well of a 48-well plate, then NECA (final concentration 100 nmol/L), forskolin (final concentration 100 μmol/L) or A23187 (final concentration 10 μmol/L) was added and stimulation was conducted by incubating in a CO2 incubator for 5 hours.
Accordingly, when the cells are stimulated by any substance, it is believed to be preferred to measure the activity after 6 hours from the stimulation.
After the incubation, firefly luciferase activity in each well was measured using the method mentioned in (4) of Example 18. With regard to a device for the measurement, Micro Lumat LB96P (manufactured by Berthold) was used. Seventeen clones having high activity were selected.
The 17 clones were used, stimulation with NECA was applied by the same manner as in the above (2), comparison with the case where no stimulation with NECA was conducted and 8 clones where luciferase activity rose to an extent of 60-fold or more were selected. Such 8 clones were named GBC1 to GBC8 respectively.
After that, coelenterazine h (Molecular Probes) (final concentration 250 nmol/L) was added to measure the activity of Renilla reniformis luciferase. For the measurement of the activity, a Wallac 1420 ARVOsx Multilable Counter (manufactured by Wallac Berthold Japan) was used. Nine clones having high activity were selected. The 9 clones were named GBCR1 to GBCR9, respectively.
With regard to the 9 clones, stimulation with NECA was conducted and, as compared with the case no stimulation with NECA was done, 2 clones where the activity of Renilla reniformis luciferase increased to an extent of not less than 18-fold were selected. The 2 clones were named GBCR1 and GBCR2, respectively.

GPR43 = biological target: T1, GPR43 (Homo sapiens, UniProt O15552); assay: Screening ligands or agonists of GPR43 (pAGal9-GPR43 in GBCRC6, Renilla luciferase); assay type: cell-based; settings: 100 μmol/L; 6 hours
T1 construct: expressed in transfected cells; host or cells: GBCRC6 (Namalwa KJM-1 derived, co-expressing Gαs-q and Gαs-i)
T1 sequence (O15552 1-330): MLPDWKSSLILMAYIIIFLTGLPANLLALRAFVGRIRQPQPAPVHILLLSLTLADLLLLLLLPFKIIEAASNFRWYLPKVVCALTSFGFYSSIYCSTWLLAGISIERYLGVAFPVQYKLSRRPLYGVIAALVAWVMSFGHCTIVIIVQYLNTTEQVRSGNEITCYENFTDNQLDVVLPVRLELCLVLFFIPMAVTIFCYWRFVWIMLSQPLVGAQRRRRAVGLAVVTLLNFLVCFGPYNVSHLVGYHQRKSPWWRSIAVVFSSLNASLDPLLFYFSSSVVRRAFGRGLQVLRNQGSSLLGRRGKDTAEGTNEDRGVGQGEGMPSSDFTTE
Procedure: According to the method mentioned in (1) of Example 20, the GPR43 gene was prepared by PCR and the gene was inserted in an expression vector pAGal9-d to construct pAGal9-GPR43 which is an inducible expression plasmid of GPR43. With regard to a template, human chromosomal DNA (100 ng; manufactured by Clontech) was used. With regard to the GPR43 gene-specific primers, synthetic DNA having sequences mentioned in SEQ ID NOS: 181 and 182, respectively, were used. A HindIII site and a NotI site were introduced to the above primers, respectively.
PCR-amplified fragment was cleaved with HindIII and NotI to prepare a HindIII-NotI fragment. A plasmid pAGal9-d was cleaved with HindIII and NotI to prepare a HindIII-NotI fragment.
According to the method mentioned in (1) of Example 21, pAGal9-GPR43 was transfected to GBCRC6 to prepare stable transformants.

other GPCRs = assay: Specificity: assay cells to which other GPCRs were transfected; assay type: cell-based
GPR41 = biological target: T2, GPR41 (Homo sapiens, UniProt O14843); assay: Screening of ligands or agonists of GPR41 (pAGal9-GPR41 in GBCRC6, Renilla luciferase); assay type: cell-based; settings: for induction ratio of the reporters (agonist for GPR41): 100 μmol/L, 6 hours
T2 construct: expressed in transfected cells; host or cells: GBCRC6 (Namalwa KJM-1 derived)
T2 sequence (O14843 1-346): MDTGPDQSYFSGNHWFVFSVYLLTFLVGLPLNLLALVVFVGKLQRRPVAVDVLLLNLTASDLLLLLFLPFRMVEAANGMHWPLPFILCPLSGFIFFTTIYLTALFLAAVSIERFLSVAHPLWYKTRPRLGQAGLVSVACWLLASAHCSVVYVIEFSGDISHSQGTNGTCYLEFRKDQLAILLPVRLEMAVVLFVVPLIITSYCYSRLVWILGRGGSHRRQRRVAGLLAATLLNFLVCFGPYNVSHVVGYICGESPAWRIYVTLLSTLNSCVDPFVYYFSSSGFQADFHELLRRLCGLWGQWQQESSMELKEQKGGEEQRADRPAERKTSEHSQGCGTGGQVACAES
Procedure: With regard to a template, human chromosomal DNA (100 ng; manufactured by Clontech) was used. With regard to the GPR41 gene-specific primers, synthetic DNAs having sequences mentioned in SEQ ID NOS: 183 and 184, respectively, were used. To the above primers, a HindIII site and a NotI site were introduced, respectively. A PCR-amplified fragment was cleaved with HindIII and NotI to prepare a HindIII-NotI fragment. A plasmid […] was cleaved with HindIII and NotI to prepare a HindIII-NotI fragment. The HindIII-NotI fragment derived from PCR fragment and the HindIII-NotI fragment derived from […] were ligated to construct pAGal9-GPR41 which was an inducible expression plasmid of GPR41.

G10d = biological target: T3, G10d (Homo sapiens, UniProt O15218); assay: Screening of ligands or agonists of G10d (pAGal9-G10d in GBCRC6, Renilla luciferase); assay type: cell-based; settings: 6 hours
T3 construct: expressed in transfected cells; host or cells: GBCRC6 (Namalwa KJM-1 derived)
T3 sequence (O15218 whole entry): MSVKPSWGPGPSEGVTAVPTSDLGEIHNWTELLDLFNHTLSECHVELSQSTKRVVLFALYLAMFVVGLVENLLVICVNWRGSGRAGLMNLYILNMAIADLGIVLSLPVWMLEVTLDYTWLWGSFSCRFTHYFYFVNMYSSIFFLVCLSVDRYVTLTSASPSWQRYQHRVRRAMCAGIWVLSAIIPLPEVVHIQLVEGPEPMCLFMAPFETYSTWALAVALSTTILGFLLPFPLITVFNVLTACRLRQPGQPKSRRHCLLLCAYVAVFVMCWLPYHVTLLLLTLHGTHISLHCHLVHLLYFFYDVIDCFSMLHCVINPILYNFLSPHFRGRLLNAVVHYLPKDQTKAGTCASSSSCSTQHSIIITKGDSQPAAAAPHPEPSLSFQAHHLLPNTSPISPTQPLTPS
Procedure: According to the method mentioned in (1) of Example 20, the G10d gene was prepared by PCR and the gene was inserted in an expression vector pAGal9-d to construct pAGal9-G10d which is an inducible expression plasmid of G10d. With regard to a template, single-stranded DNAs derived from human spleen were used. With regard to the G10d gene-specific primers, synthetic DNAs having sequences mentioned in SEQ ID NOS: 185 and 186 were used. To the above primers, a HindIII site and a NotI site were introduced, respectively.
A PCR-amplified fragment was cleaved with HindIII and NotI to prepare a HindIII-NotI fragment. A plasmid pAGal9-d was cleaved with HindIII and NotI to prepare a HindIII-NotI fragment.
(§1) According to the method mentioned in (1) of Example 21, pAGal9-G10d was transfected to GBCRC6 to prepare stable transformants. […] It is possible to screen an antagonist for G10d using α-MSH or ACTH as an agonist.

[1] = tested on: GBCRC6 to which control vector (pAGal9-d) was transfected; assay: Control: GBCRC6 to which control vector (pAGal9-d) was transfected; assay type: cell-based, human
Excerpt: as §1

CRE reporter in KJMGER8 = assay: Constitutive activity of GPCR, Method 5 (KJMGER8 co-transfected with pACREpluc, firefly luciferase); assay type: cell-based, human; settings: 17β-estradiol 10 nmol/L, 1 day, activity with divided by activity without, control plasmid about 1
Procedure: After the cultivation, firefly luciferase activity was measured. […] It is judged that the higher the induction ratio of the cells to which a GPCR expression plasmid was transfected, the stronger the constitutive activity of the GPCR.

[2] = biological target: T4, melanocortin receptor type 1 (MC1R) (Homo sapiens, UniProt Q01726); assay: MC1R reporter assay in GBCR2 (pAGal9-MC1R), Renilla reniformis luciferase; assay type: cell-based; settings: GBCR2 with pAGal9-MC1R, 17β-estradiol 10 nmol/L 24 hours; various concentrations, 6 hours
T4 construct: expressed in transfected cells; host or cells: GBCR2 (Namalwa KJM-1 derived)
T4 sequence (Q01726 whole entry): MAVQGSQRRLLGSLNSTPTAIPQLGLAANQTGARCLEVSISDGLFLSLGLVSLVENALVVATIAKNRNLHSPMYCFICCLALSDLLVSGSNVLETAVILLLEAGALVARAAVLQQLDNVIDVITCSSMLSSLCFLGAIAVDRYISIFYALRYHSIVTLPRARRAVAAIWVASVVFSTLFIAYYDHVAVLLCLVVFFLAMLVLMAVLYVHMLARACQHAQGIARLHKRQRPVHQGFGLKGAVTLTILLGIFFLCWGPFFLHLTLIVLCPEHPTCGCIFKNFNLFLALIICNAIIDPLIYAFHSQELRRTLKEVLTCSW
Procedure: One of the plasmids was named pAGal9-MC1R. The nucleotide sequence was determined by the method mentioned in the above (2).
According to the method mentioned in (1) of Example 21, pAGal9-MC1R was transfected to GBCR2 to prepare stable transformants.

Molecule: CNc1ccc2oc(C[C@H]3O[C@@]4(CC[C@H]3C)O[C@H]([C@H](C)C(=O)c3ccc[nH]3)[C@H](C)C[C@H]4C)nc2c1C(=O)O [A23187]
change of firefly luciferase activity (gene expression via CRE; Namalwa KJM-1 with pACREpluc, A23187 10 μmol/L, 5 hours): rarely changed

Molecule: CCNC(=O)[C@H]1O[C@@H](n2cnc3c(N)ncnc32)[C@H](O)[C@@H]1O [NECA, 5′-N-ethylcarboxamide adenosine]
increase of Renilla reniformis luciferase activity versus no stimulation (gene expression via CRE; 2 clones GBCR1 and GBCR2 (KJMGER8 with integrated pACRERluc), NECA 100 nmol/L): not less than 18 fold
rise of firefly luciferase activity versus no stimulation (gene expression via CRE; 8 clones GBC1 to GBC8 (KJMGER8 with integrated pACREpluc), NECA stimulation): ≥ 60 fold
increase of firefly luciferase activity (gene expression via CRE; Namalwa KJM-1 with pACREpluc, NECA 100 nmol/L, 5 hours): about 7 fold
firefly luciferase activity after 24 hours (gene expression via CRE; Namalwa KJM-1 with pACREpluc, compared with highest activity at 6 hours): decreased to an extent of nearly one half
time after stimulation at which firefly luciferase activity was highest (gene expression via CRE; Namalwa KJM-1 with pACREpluc, measured after 6, 24, 48, 72 and 96 hours): 6 h

Molecule: CC(=O)O [acetate]
induction ratio of the reporter (agonist for GPR43) (GPR43): 9 fold

Molecule: CC(=O)O [acetic acid]
induction ratio of the reporter (agonist for GPR43) (GPR43): 4 fold
action on assay cells to which other GPCRs were transfected (other GPCRs): did not act
agonist activity to GPR41 (GPR41): did not show an agonist activity

Molecule: C=C[C@@]1(C)CC(=O)[C@]2(O)[C@@]3(C)[C@@H](O)CCC(C)(C)[C@@H]3[C@H](O)[C@H](OC(C)=O)[C@@]2(C)O1 [forskolin]
increase of firefly luciferase activity (gene expression via CRE; Namalwa KJM-1 with pACREpluc, forskolin 100 μmol/L, 5 hours): about 10 fold

Molecule: ACTH: adrenocorticotropic hormone (SYSMEHFRWGKPVGKKRRPVKVYPNGAEDESAEAFPLEF)
induction ratio of the reporters (agonist for G10d) (G10d; 100 nmol/L of ACTH): 11 fold
action on GBCRC6 to which control vector (pAGal9-d) was transfected [1]: did not act

Molecule: α-MSH: α-melanocyte-stimulating hormone
induction ratio of the reporters (agonist for G10d) (G10d; 100 μmol/L of α-MSH): 10 fold
action on GBCRC6 to which control vector (pAGal9-d) was transfected [1]: did not act

Second part, led by results:

rising rate of luciferase activity upon addition of 17β-estradiol (GPR12; GBC5 with pAGal9-GPR12): 56 fold
rising rate of luciferase activity upon addition of 17β-estradiol (GPR12; GBC6 with pAGal9-GPR12): 193 fold
rising rate of luciferase activity upon addition of 17β-estradiol (GPR12; GBC7 with pAGal9-GPR12): 364 fold
rising rate of Renilla reniformis luciferase activity when 17β-estradiol was added (GPR12; GBCR2 with pAGal9-GPR12): 364 fold
Molecule: C[C@]12CC[C@@H]3c4ccc(O)cc4CC[C@H]3[C@@H]1CC[C@@H]2O [17β-estradiol]

induction ratio of the reporters (agonist for GPR41) (GPR41): 22 fold
Molecule: O=C(O)C1CC1 [cyclopropanecarboxylic acid]
action on assay cells to which other GPCRs were transfected (other GPCRs): did not act

induction ratio of the reporter (agonist for GPR43) (GPR43): 5 fold
induction ratio of the reporters (agonist for GPR41) (GPR41): 21 fold
Molecule: CCC(=O)O [propionic acid]

Constitutive Activity (induction ratio) (CRE reporter in KJMGER8): 6.5-fold
Molecule: GPR 3

Constitutive Activity (induction ratio) (CRE reporter in KJMGER8): 26-fold
Molecule: GPR 26

concentration at which MC1R reacts (Renilla luciferase reporter) [2]: very low concentration
Molecule: human PAMP-12: peptide consisting of the 9th to 20th amino acid residues from N terminal of PAMP (FRKKWNKWALSR; ends and bridges not checked; UniProt P35318 30-41, looked up, fragment)

concentration at which MC1R reacts (Renilla luciferase reporter) [2]: very low concentration
Molecule: human PAMP: peptide comprising 20 amino acids excised from a precursor protein of adrenomedullin (ARLDVASEFRKKWNKWALSR; ends and bridges not checked; UniProt P35318 22-41, looked up)
